Test results reported in US9902728B2, “Pyrrolo and pyrazolopyrimidines as ubiquitin-specific protease 7 inhibitors” (Forma Therapeutics, Inc., priority 2014, dated 2018).
pIC50: −log10 of the molar value.

target: T1, USP7 (Homo sapiens, UniProt Q93009); experiment: USP7 Assay A (Ubitquin-Rhodamine 110 Assay); format: biochemical; conditions: USP7 activity in USP7 assay A and B (table does not say which assay per compound); read-out: USP7_IC50
T1 construct: USP7, construct USP7 (208-1102) 6*His, Viva Biotech; 6xHis (C); purchased Viva Biotech
In short: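 Ub-Rh110 cleavage in 20 mM Tris-HCl pH 8.0 with 1 mM GSH, 0.03% BGG, 0.01% Triton X-100; compound preincubated with enzyme 30 min before substrate.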

T1 sequence (Q93009 208-1102): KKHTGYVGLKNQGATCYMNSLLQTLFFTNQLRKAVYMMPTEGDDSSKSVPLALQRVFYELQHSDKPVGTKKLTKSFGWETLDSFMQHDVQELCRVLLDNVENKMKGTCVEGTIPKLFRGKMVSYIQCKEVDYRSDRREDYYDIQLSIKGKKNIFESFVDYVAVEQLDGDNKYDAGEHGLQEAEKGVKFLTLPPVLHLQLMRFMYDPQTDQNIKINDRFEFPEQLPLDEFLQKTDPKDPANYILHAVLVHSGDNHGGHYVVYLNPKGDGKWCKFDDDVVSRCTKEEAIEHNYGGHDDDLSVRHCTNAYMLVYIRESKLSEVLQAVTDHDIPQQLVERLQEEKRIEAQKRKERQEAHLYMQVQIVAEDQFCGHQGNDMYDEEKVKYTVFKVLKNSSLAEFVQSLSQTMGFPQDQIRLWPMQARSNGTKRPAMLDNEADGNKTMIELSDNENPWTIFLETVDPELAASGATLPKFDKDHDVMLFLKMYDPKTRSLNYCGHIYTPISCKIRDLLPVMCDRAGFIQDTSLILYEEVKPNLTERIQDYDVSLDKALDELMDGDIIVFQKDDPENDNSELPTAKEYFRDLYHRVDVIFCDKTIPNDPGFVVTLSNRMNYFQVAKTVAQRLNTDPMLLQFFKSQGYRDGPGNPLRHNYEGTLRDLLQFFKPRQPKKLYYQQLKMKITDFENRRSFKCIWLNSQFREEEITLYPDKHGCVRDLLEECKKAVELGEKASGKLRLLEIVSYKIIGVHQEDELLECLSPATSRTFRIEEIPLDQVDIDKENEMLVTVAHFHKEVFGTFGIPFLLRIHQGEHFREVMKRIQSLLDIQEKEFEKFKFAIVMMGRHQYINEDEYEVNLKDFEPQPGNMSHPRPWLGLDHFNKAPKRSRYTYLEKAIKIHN

| SMILES | pIC50 |
| --- | --- |
| O=C(c1ccnn1Cc1ccccc1)N1CCC(O)(Cn2cnc3c(cnn3-c3ccc(F)cc3)c2=O)CC1 [Compound I-541] | 6.00 to 6.70 |
| O=C(C[C@@H](C(F)F)n1ccc(F)n1)N1CCC(O)(Cn2cnc3c(cnn3-c3ccc(F)cc3)c2=O)CC1 [Compound I-542] | > 6.70 |
| O=C(C[C@H](C(F)F)n1ccc(F)n1)N1CCC(O)(Cn2cnc3c(cnn3-c3ccc(F)cc3)c2=O)CC1 [Compound I-543] | 6.00 to 6.70 |
| O=C(C1CCC(Oc2ccccn2)CC1)N1CCC(O)(Cn2cnc3c(cnn3-c3ccc(F)cc3)c2=O)CC1 (stereo not drawn) [Compound I-544] | 5.00 to 6.00 |
| O=C(C1CCC(Oc2ccccn2)CC1)N1CCC(O)(Cn2cnc3c(cnn3-c3ccc(F)cc3)c2=O)CC1 (stereo not drawn) [Compound I-545] | 6.00 to 6.70 |
| O=C(C1CCC(Oc2ccccn2)CC1)N1CCC(O)(Cn2cnc3c(cnn3-c3ccc(F)cc3)c2=O)CC1 (stereo not drawn) [Compound I-546] | 6.00 to 6.70 |
| O=C(c1ccc(Oc2ccccn2)cn1)N1CCC(O)(Cn2cnc3c(cnn3-c3ccc(F)cc3)c2=O)CC1 [Compound I-547] | 5.00 to 6.00 |
| O=C(C1CCC(n2cccn2)CC1)N1CCC(O)(Cn2cnc3c(cnn3-c3ccc(F)cc3)c2=O)CC1 (stereo not drawn) [Compound I-548] | 5.00 to 6.00 |
| O=C(C1CCC(n2cccn2)CC1)N1CCC(O)(Cn2cnc3c(cnn3-c3ccc(F)cc3)c2=O)CC1 (stereo not drawn) [Compound I-549] | 5.00 to 6.00 |
| O=C(c1ccc(-c2cnn3c2OCC3)cc1)N1CCC(O)(Cn2cnc3c(cnn3-c3ccc(F)cc3)c2=O)CC1 [Compound I-550] | 6.00 to 6.70 |
| O=C(c1ccc(-c2cnn3c2OCCC3)cc1)N1CCC(O)(Cn2cnc3c(cnn3-c3ccc(F)cc3)c2=O)CC1 [Compound I-551] | 6.00 to 6.70 |
| O=C(c1ccc(-c2cnn3c2NCCC3)cc1)N1CCC(O)(Cn2cnc3c(cnn3-c3ccc(F)cc3)c2=O)CC1 [Compound I-552] | 6.00 to 6.70 |
| Nc1cc(Cl)ccc1C(=O)N1CCC(O)(Cn2cnc3c(cnn3-c3ccc(F)cc3)c2=O)CC1 [Compound I-554] | 5.00 to 6.00 |
| O=C(c1cnc(N2CCOCC2)o1)N1CCC(O)(Cn2cnc3c(cnn3-c3ccc(F)cc3)c2=O)CC1 [Compound I-555] | 6.00 to 6.70 |
| O=C(c1nnc(C2CC2)o1)N1CCC(O)(Cn2cnc3c(cnn3-c3ccc(F)cc3)c2=O)CC1 [Compound I-556] | 5.00 to 6.00 |
| O=C(c1ncoc1Cc1ccccc1)N1CCC(O)(Cn2cnc3c(cnn3-c3ccc(F)cc3)c2=O)CC1 [Compound I-557] | 6.00 to 6.70 |
| O=C(c1cccn1Cc1ccc(F)cc1)N1CCC(O)(Cn2cnc3c(cnn3-c3ccc(F)cc3)c2=O)CC1 [Compound I-558] | 6.00 to 6.70 |
| O=C(c1cccn1Cc1c(F)cccc1F)N1CCC(O)(Cn2cnc3c(cnn3-c3ccc(F)cc3)c2=O)CC1 [Compound I-559] | 5.00 to 6.00 |
| O=C(c1cccn1Cc1cccc(F)c1)N1CCC(O)(Cn2cnc3c(cnn3-c3ccc(F)cc3)c2=O)CC1 [Compound I-560] | 6.00 to 6.70 |
| O=C(c1cccn1Cc1ccccc1F)N1CCC(O)(Cn2cnc3c(cnn3-c3ccc(F)cc3)c2=O)CC1 [Compound I-561] | 6.00 to 6.70 |
| Cn1cc(Oc2ccc(C(=O)N3CCC(O)(Cn4cnc5c(cnn5-c5ccc(F)cc5)c4=O)CC3)cc2)cn1 [Compound I-562] | 5.00 to 6.00 |
| Cc1cc(Oc2ccc(C(=O)N3CCC(O)(Cn4cnc5c(cnn5-c5ccc(F)cc5)c4=O)CC3)cc2)no1 [Compound I-563] | 5.00 to 6.00 |
| O=C(c1cn[nH]c1Cc1ccccc1)N1CCC(O)(Cn2cnc3c(cnn3-c3ccc(F)cc3)c2=O)CC1 [Compound I-603] | > 6.70 |
| CN1CC2CC1CN2c1ccc(C(=O)N2CCC(O)(Cn3cnc4c(cnn4-c4ccc(F)cc4)c3=O)CC2)cc1 (stereo not drawn) [Compound I-604] | 5.00 to 6.00 |
| O=C(N1CCC(Oc2ccccn2)CC1)N1CCC(O)(Cn2cnc3c(cnn3-c3ccc(F)cc3)c2=O)CC1 [Compound I-610] | 5.00 to 6.00 |

same assay, conditions: USP7 assay A and B (table does not say which assay per compound); read-out: USP7_IC50

| SMILES | pIC50 |
| --- | --- |
| C[C@H](CC(=O)N1CCC(O)(Cn2cnc3c(cnn3-c3ccc(F)cc3)c2=O)CC1)n1cc2c(n1)CCC2 [Compound I-520] | < 5.00 |
| C[C@@H](CC(=O)N1CCC(O)(Cn2cnc3c(cnn3-c3ccc(F)cc3)c2=O)CC1)n1ncc2c1CCC2 [Compound I-521] | < 5.00 |
| C[C@H](CC(=O)N1CCC(O)(Cn2cnc3c(cnn3-c3ccc(F)cc3)c2=O)CC1)n1ncc2c1CCC2 [Compound I-522] | < 5.00 |
| CC(CC(=O)N1CCC(O)(Cn2cnc3c(cnn3-c3ccc(F)cc3)c2=O)CC1)N1CC2CCCC2C1 (stereo not drawn) [Compound I-523] | < 5.00 |
| C[C@@H](CC(=O)N1CCC(O)(Cn2cnc3c(cnn3-c3ccc(F)cc3)c2=O)CC1)N1CC2CCCC2C1 (stereo partly drawn) [Compound I-524] | 5.00 to 6.00 |
| C[C@H](CC(=O)N1CCC(O)(Cn2cnc3c(cnn3-c3ccc(F)cc3)c2=O)CC1)N1CC2CCCC2C1 (stereo partly drawn) [Compound I-525] | < 5.00 |
| CC(O)(c1ccc(C(=O)N2CCC(O)(Cn3cnc4c(cnn4-c4ccc(F)cc4)c3=O)CC2)cc1)C(F)(F)F (stereo not drawn) [Compound I-526] | 5.00 to 6.00 |
| C[C@@](O)(c1ccc(C(=O)N2CCC(O)(Cn3cnc4c(cnn4-c4ccc(F)cc4)c3=O)CC2)cc1)C(F)(F)F [Compound I-527] | 5.00 to 6.00 |
| O=C(c1ccc(CN2CCCC2)cc1)N1CCC(O)(Cn2cnc3c(cnn3-c3ccc(F)cc3)c2=O)CC1 [Compound I-529] | 5.00 to 6.00 |
| Cc1ncc(C(=O)N2CCC(O)(Cn3cnc4c(cnn4-c4ccc(F)cc4)c3=O)CC2)o1 [Compound I-531] | 5.00 to 6.00 |
| CN1CCC(Oc2ccc(C(=O)N3CCC(O)(Cn4cnc5c(cnn5-c5ccc(F)cc5)c4=O)CC3)cc2)CC1 [Compound I-533] | 5.00 to 6.00 |
| O=C(c1ccc(-n2cccn2)cc1)N1CCC(O)(Cn2cnc3c(cnn3-c3ccc(F)cc3)c2=O)CC1 [Compound I-535] | 6.00 to 6.70 |
| O=C(c1cnc(N2CCCCC2)o1)N1CCC(O)(Cn2cnc3c(cnn3-c3ccc(F)cc3)c2=O)CC1 [Compound I-536] | 5.00 to 6.00 |
| CN1CCN(c2ccc(C(=O)N3CCC(O)(Cn4cnc5c(cnn5-c5ccc(F)cc5)c4=O)CC3)cc2F)CC1 [Compound I-537] | 5.00 to 6.00 |
| O=C(c1ccc(Oc2ccccn2)cc1)N1CCC(O)(Cn2cnc3c(cnn3-c3ccc(F)cc3)c2=O)CC1 [Compound I-538] | 5.00 to 6.00 |
| O=C(c1ccc(Oc2ncccn2)cc1)N1CCC(O)(Cn2cnc3c(cnn3-c3ccc(F)cc3)c2=O)CC1 [Compound I-539] | 5.00 to 6.00 |
| C=CC(=O)N1CC[C@@H]1C(=O)N1CCC(O)(Cn2cnc3c(cnn3-c3ccc(F)cc3)c2=O)CC1 [Compound I-574] | 6.00 to 6.70 |
| C=CC(=O)NC1CCC(C(=O)N2CCC(O)(Cn3cnc4c(cnn4-c4ccc(F)cc4)c3=O)CC2)CC1 (stereo not drawn) [Compound I-576] | 5.00 to 6.00 |
| C=CC(=O)N1CC[C@]1(C)C(=O)N1CCC(O)(Cn2cnc3c(cnn3-c3ccc(F)cc3)c2=O)CC1 [Compound I-580] | 6.00 to 6.70 |
| C#CC(=O)N(C)C1CC(C(=O)N2CCC(O)(Cn3cnc4c(cnn4-c4ccc(F)cc4)c3=O)CC2)C1 (stereo not drawn) [Compound I-589] | 5.00 to 6.00 |
| CC1(O)CCN(Cc2cccc(C(=O)N3CCC(O)(Cn4cnc5c(cnn5-c5ccc(F)cc5)c4=O)CC3)c2)C1 (stereo not drawn) [Compound I-601] | < 5.00 |
| CN1CCC(c2ccc(C(=O)N3CCC(O)(Cn4cnc5c(cnn5-c5ccc(F)cc5)c4=O)CC3)cc2)CC1 [Compound I-605] | < 5.00 |
| CN1CCN(c2ccc(C(=O)N3CCC(O)(Cn4cnc5c(cnn5-c5ccc(F)cc5)c4=O)CC3)cc2)CC1 [Compound I-606] | 5.00 to 6.00 |
